Assay results from patent publication US6514911B1, “Substituted oxadiazines useful as pesticides” (Uniroyal Chemical Company, Inc., priority 2002, dated 2003).

Key:
Format in all cases: in vivo
[1] = test system: velvetleaf (Abutilon theophrasti Medik.) (VL); assay: Preemergence herbicide test, soil drench, velvetleaf; details: Abutilon theophrasti, 336 h, 10 lbs/A (11.2 kg/ha) soil drench, two weeks after treatment, vs untreated checks, read-out: Percent Weed Control VL
Outline: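 Compound in acetone/ethoxylated sorbitan monolaurate, diluted to 250 ppm in water, was drenched onto the soil surface of pots sown with velvetleaf at 10 lb/acre (11.2 kg/ha). Percent control versus untreated checks was rated two weeks after treatment.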

[2] = test system: barnyardgrass (Echinochloa crus-galli (L.) Beauv.) (BG); assay: Postemergence herbicide test, foliar spray, barnyardgrass; details: 3000 ppm foliar spray to drip point, treated six days after emergence, two weeks after treatment
Procedure: (§1) To illustrate the effectiveness of the previously described substituted oxadiazines of this invention as preemergence herbicides, 300 mg of the chemical was dissolved in a composition comprising 10 mL acetone to which 30 mg of tile emulsifying agent, ethoxylated sorbitan monolaurate, was added. The solution was diluted to 100 mL with distilled water. Ten milliliters of this 3000 ppm solution was diluted to 250 ppm with distilled water. The chemical was applied at the rate of 10 pounds/acre (11.2 kg/ha) by drenchings 46 mL of the 250 ppm solution on the surface of soil in 4½ inch (11.25 cm) plastic pots wherein seeds of the following weeds had been planted: barnyardgrass (Echinochloa crus-galli (L.) Beauv.) (BG), and To illustrate the effectiveness of the described substituted oxadiazines as postemergence herbicides, the 3000 ppm solution described under Example 5 was atomized with a conventional DeVilbiss™ sprayer, wetting the foliage to the drip point. The weeds, which were the same species as described in Example 5, were treated six days after emergence. The percent weed control was evaluated two weeks after treatment.

[3] = test system: switchgrass (Panicum virgahim L.) (SG); assay: Postemergence herbicide test, foliar spray, switchgrass; details: 3000 ppm foliar spray to drip point, treated six days after emergence, two weeks after treatment
Procedure: as §1, with “41⁄2” for “4½”, “switchgrass (Panicum […].) (SG),” for “barnyardgrass (Echinochloa crus-galli (L.) Beauv.) (BG), and”, “DeVilbissTM” for “DeVilbiss™”

[4] = test system: barnyardgrass (Echinochloa crus-galli (L.) Beauv.) (BG); assay: Preemergence herbicide test, soil drench, barnyardgrass; details: Echinochloa crus-galli, 336 h, 10 lbs/A (11.2 kg/ha) soil drench, two weeks after treatment, vs untreated checks, read-out: Percent Weed Control BG
Outline: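 Compound formulated in acetone with ethoxylated sorbitan monolaurate, diluted to 250 ppm and drenched onto soil surface of seeded pots at 10 pounds/acre (11.2 kg/ha), preemergence. Percent weed control versus untreated checks scored two weeks after treatment.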

[5] = test system: prickly sida (Sida spinosa L.) (PS); assay: Preemergence herbicide test, soil drench, prickly sida; details: Sida spinosa, 336 h, 10 lbs/A (11.2 kg/ha) soil drench, two weeks after treatment, vs untreated checks, read-out: Percent Weed Control PS
[6] = test system: green foxtail (Setaria virdis (L.) Beauv.) (GF); assay: Preemergence herbicide test, soil drench, green foxtail; details: Setaria, 336 h, 10 lbs/A (11.2 kg/ha) soil drench, two weeks after treatment, vs untreated checks, read-out: Percent Weed Control GF
Outline: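 Compound in acetone/water with ethoxylated sorbitan monolaurate emulsifier, applied as 250 ppm soil drench at 10 lb/acre (11.2 kg/ha) to pots sown with green foxtail seed. Percent weed control versus untreated checks rated two weeks after treatment.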

Compound: FC(F)(F)C1=NC(C(F)(F)F)(C(F)(F)F)N=C(c2cccc(Cl)c2)O1 [Compound 4, 2-(3-chlorophenyl)-4,4,6-tris(trifluoromethyl)-4H-1,3,5-oxadiazine]
- pest or weed control at 11208.5 g/ha [1]: 100%
- Percent Weed Control BG [2]: 100%
- Percent Weed Control SG [3]: 80%
- pest or weed control at 11208.5 g/ha [4]: 100%
- pest or weed control at 11208.5 g/ha [5]: 100%
- pest or weed control at 11208.5 g/ha [6]: 100%

Compound: FC(F)(F)C(F)(F)C1=NC(C(F)(F)F)(C(F)(F)F)N=C(c2cccc(Cl)c2)O1 [Compound 13, 2-(3-chlorophenyl)-6-(pentafluoroethyl)-4,4-bis(trifluoromethyl)-4H-1,3,5-oxadiazine]
- pest or weed control at 11208.5 g/ha [1]: 100%
- Percent Weed Control BG [2]: 80%
- Percent Weed Control SG [3]: 90%
- pest or weed control at 11208.5 g/ha [4]: 100%
- pest or weed control at 11208.5 g/ha [5]: 100%
- pest or weed control at 11208.5 g/ha [6]: 100%

Compound: Fc1ccc(C2=NC(C(F)(F)F)(C(F)(F)F)N=C(C(F)(F)C(F)(F)F)O2)cc1Cl [Compound 20, 2-(3-chloro-4-fluorophenyl)-6-(pentafluoroethyl)-4,4-bis(trifluoromethyl)-4H-1,3,5-oxadiazine]
- pest or weed control at 11208.5 g/ha [1]: 100%
- Percent Weed Control BG [2]: 30%
- Percent Weed Control SG [3]: 30%
- pest or weed control at 11208.5 g/ha [4]: 100%
- pest or weed control at 11208.5 g/ha [5]: 100%
- pest or weed control at 11208.5 g/ha [6]: 100%

Compound: FC(F)(F)C(F)(F)C1=NC(C(F)(F)F)(C(F)(F)F)N=C(c2ccc(Cl)cc2)O1 [Compound 24, 2-(4-chlorophenyl)-6-(pentafluoroethyl)-4,4-bis(trifluoromethyl)-4H-1,3,5-oxadiazine]
- pest or weed control at 11208.5 g/ha [1]: 100%
- Percent Weed Control BG [2]: 20%
- Percent Weed Control SG [3]: 20%
- pest or weed control at 11208.5 g/ha [4]: 90%
- pest or weed control at 11208.5 g/ha [5]: 100%
- pest or weed control at 11208.5 g/ha [6]: 100%

Compound: FC(F)(F)C(F)(F)C1=NC(C(F)(F)F)(C(F)(F)F)N=C(c2ccc(Br)cc2)O1 [Compound 25, 2-(4-bromophenyl)-6-(pentafluoroethyl)-4,4-bis(trifluoromethyl)-4H-1,3,5-oxadiazine]
- pest or weed control at 11208.5 g/ha [1]: 100%
- Percent Weed Control BG [2]: 50%
- Percent Weed Control SG [3]: 0%
- pest or weed control at 11208.5 g/ha [4]: 90%
- pest or weed control at 11208.5 g/ha [5]: 100%
- pest or weed control at 11208.5 g/ha [6]: 100%
